{
  "source": "patent US20100305120A1",
  "about": "“COMPOUNDS FOR TREATING MUSCULAR DYSTROPHY” (BIOMARIN IGA LIMITED, priority 2008, published 2010)",
  "data": [
    {"test_system": "Utrophin A promoter linked to a luciferase reporter gene", "assay": "Luciferase reporter assay (murine H2K cells), H2K/mdx/Utro A reporter cell line", "format": "cell-based", "details": "48 h; test compound concentration 3 μM; mdx mouse H2K Utrophin A reporter cells; read-out: Activity (luciferase level relative to control)", "experimental": "(§1) Luciferase Reporter Assay (Murine H2K Cells)\n(§2) The cell line used for the screen is an immortalized mdx mouse H2K cell line that has been stably transfected with a plasmid containing ≈5 kb fragment of the Utrophin A promoter including the first untranslated exon linked to a luciferase reporter gene.\n(§3) Under conditions of low temperature and interferon containing media, the cells remain as myoblasts. These are plated into 96 well plates and cultured in the presence of compound for three days. The level of luciferase is then determined by cell lysis and reading of the light output from the expressed luciferase gene utilising a plate luminometer.\n(§4) Luciferase Assay for 96 Well Plates\n(§5) The H2K/mdx/Utro A reporter cell line cells were plated out into 96 well plates (Falcon 353296, white opaque) at a density of approximately 5000 cells/well in 190 μl normal growth medium. The plates were then incubated at 33° C. in the presence of 10% CO2 for 24 hrs.\n(§6) Compounds were dosed by adding 10 μl of diluted compound to each well giving a final concentration of 10 μM (where a different final concentration was required, the amount of compound solution added was amended accordingly). The plates were then incubated for a further 48 hrs. Cells were then lysed in situ following the manufacture's protocols (Promega Steady-Glo Luciferase Assay System(E2520). Then counted for 10 seconds using a plate luminometer (Victor1420).\n(§7) Compounds for screening were stored at −20° C. as 10 mM stocks in 100% DMSO until required.\n(§8) Biological activity as assessed using the luciferase reporter assay in murine H2K cells, and the results are shown in Table 1, which also lists the concentration of the test compound solution in μM.", "units": {"activity at 3 µM": "%"}, "values": [
      {"molecule": "O=C(Nc1ccc2c(c1)OCO2)c1nn(CCc2ccc(C(=O)N3CCOCC3)cc2)c2ccccc12", "note": "[Compound 92, N-(benzo[d][1,3]dioxol-5-yl)-1-(4-(morpholine-4-carbonyl)phenethyl)-1H-indazole-3-carboxamide]", "activity at 3 µM": "< 200"},
      {"molecule": "CS(=O)(=O)c1ccc(Cn2nc(C(=O)Nc3cnc4ccccc4c3)c3ccccc32)cc1", "note": "[Compound 103, 1-(4-(methylsulfonyl)benzyl)-N-(quinolin-3-yl)-1H-indazole-3-carboxamide]", "activity at 3 µM": "< 200"}
    ]},
    {"test_system": "Utrophin A promoter linked to a luciferase reporter gene", "assay": "Luciferase reporter assay (murine H2K cells), H2K/mdx/Utro A reporter cell line", "format": "cell-based", "details": "48 h; test compound concentration 10 μM; mdx mouse H2K Utrophin A reporter cells; read-out: Activity (luciferase level relative to control)", "experimental": "as §1, §2, §3, §4, §5, §6, §7, §8", "units": {"activity at 10 µM": "%"}, "values": [
      {"molecule": "CS(=O)(=O)c1ccc(Cn2nc(C(=O)Nc3ccc(S(C)(=O)=O)cc3)c3ccccc32)cc1", "note": "[Compound 101, 1-(4-(methylsulfonyl)benzyl)-N-(4-(methylsulfonyl)phenyl)-1H-indazole-3-carboxamide]", "activity at 10 µM": "< 200"},
      {"molecule": "O=C(Nc1ccc2c(c1)OCO2)c1nn(CCCOc2ccccc2)c2ccccc12", "note": "[Compound 45, N-(benzo[d][1,3]dioxol-5-yl)-1-(3-phenoxypropyl)-1H-indazole-3-carboxamide]", "activity at 10 µM": "> 401"},
      {"molecule": "O=C(Nc1ccc2c(c1)OCO2)c1nn(Cc2cccc(C(=O)N3CCOCC3)c2)c2ccccc12", "note": "[Compound 100, N-(benzo[d][1,3]dioxol-5-yl)-1-(3-(morpholine-4-carbonyl)benzyl)-1H-indazole-3-carboxamide]", "activity at 10 µM": "< 200"},
      {"molecule": "O=C(Nc1ccc2c(c1)OCO2)c1nn(Cc2ccon2)c2ccccc12", "note": "[Compound 145, N-(benzo[d][1,3]dioxol-5-yl)-1-(isoxazol-3-ylmethyl)-1H-indazole-3-carboxamide]", "activity at 10 µM": "< 200"},
      {"molecule": "CCN(CC)S(=O)(=O)c1ccc(Cn2nc(C(=O)Nc3ccc4c(c3)C(=O)N(C)C4=O)c3ccccc32)cc1", "note": "[Compound 41, 1-(4-(N,N-diethylsulfamoyl)benzyl)-N-(2-methyl-1,3-dioxoisoindolin-5-yl)-1H-indazole-3-carboxamide]", "activity at 10 µM": "< 200"},
      {"molecule": "CC(C)c1ccc(NC(=O)c2nn(CCOc3ccccc3)c3ccccc23)cc1", "note": "[Compound 26, N-(4-isopropylphenyl)-1-(2-phenoxyethyl)-1H-indazole-3-carboxamide]", "activity at 10 µM": "< 200"},
      {"molecule": "Cc1ccc(NC(=O)Nc2nn(Cc3ccc(COc4ccc5c(c4)OCO5)cc3)c3ccc(C(F)(F)F)cc23)cc1", "note": "[Compound 57, 1-(1-(4-((benzo[d][1,3]dioxol-5-yloxy)methyl)benzyl)-5-(trifluoromethyl)-1H-indazol-3-yl)-3-p-tolylurea]", "activity at 10 µM": "< 200"},
      {"molecule": "COc1ccccc1CNC(=O)Nc1nn(Cc2cc3c(cc2Cl)OCO3)c2ccccc12", "note": "[Compound 78, 1-(1-((6-chlorobenzo[d][1,3]dioxol-5-yl)methyl)-1H-indazol-3-yl)-3-(2-methoxybenzyl)urea]", "activity at 10 µM": "< 200"},
      {"molecule": "O=C(Nc1ccc(N2CCCCC2)cc1)c1nn(CCCOc2ccccc2)c2ccccc12", "note": "[Compound 14, 1-(3-phenoxypropyl)-N-(4-(piperidin-1-yl)phenyl)-1H-indazole-3-carboxamide]", "activity at 10 µM": "301 to 400"},
      {"molecule": "CS(=O)(=O)c1cccc(Cn2nc(C(=O)Nc3ccc4c(c3)OCO4)c3ccccc32)c1", "note": "[Compound 127, N-(benzo[d][1,3]dioxol-5-yl)-1-(3-(methylsulfonyl)benzyl)-1H-indazole-3-carboxamide]", "activity at 10 µM": "< 200"},
      {"molecule": "O=C(Nc1ccc2c(c1)OCCO2)c1nn(Cc2ccc(C(=O)N3CCOCC3)cc2)c2ccc(F)cc12", "note": "[Compound 160, N-(2,3-dihydrobenzo[b][1,4]dioxin-6-yl)-5-fluoro-1-(4-(morpholine-4-carbonyl)benzyl)-1H-indazole-3-carboxamide]", "activity at 10 µM": "< 200"},
      {"molecule": "CC(C)(C)c1ccc(C(=O)n2nc(C(=O)Nc3ccc4c(c3)OCO4)c3ccccc32)cc1", "note": "[Compound 124, N-(benzo[d][1,3]dioxol-5-yl)-1-(4-tert-butylbenzoyl)-1H-indazole-3-carboxamide]", "activity at 10 µM": "301 to 400"},
      {"molecule": "CS(=O)(=O)c1ccc(Cn2nc(C(=O)Nc3ccc4nccnc4c3)c3ccccc32)cc1", "note": "[Compound 110, 1-(4-(methylsulfonyl)benzyl)-N-(quinoxalin-6-yl)-1H-indazole-3-carboxamide]", "activity at 10 µM": "301 to 400"},
      {"molecule": "CCCc1ccc(NC(=O)c2nn(Cc3ccc(S(C)(=O)=O)cc3)c3ccccc23)cc1", "note": "[Compound 112, 1-(4-(methylsulfonyl)benzyl)-N-(4-propylphenyl)-1H-indazole-3-carboxamide]", "activity at 10 µM": "201 to 300"},
      {"molecule": "CC(C)c1nsc(NC(=O)c2nn(Cc3ccc(S(C)(=O)=O)cc3)c3ccccc23)n1", "note": "[Compound 98, N-(3-isopropyl-1,2,4-thiadiazol-5-yl)-1-(4-(methylsulfonyl)benzyl)-1H-indazole-3-carboxamide]", "activity at 10 µM": "< 200"},
      {"molecule": "O=C(Nc1ccc(OC(F)(F)F)cc1)c1nn(Cc2ccc(C(=O)N3CCOCC3)cc2)c2ccccc12", "note": "[Compound 61, 1-(4-(morpholine-4-carbonyl)benzyl)-N-(4-(trifluoromethoxy)phenyl)-1H-indazole-3-carboxamide]", "activity at 10 µM": "> 401"},
      {"molecule": "O=C(NCC1CCCO1)c1nn(Cc2ccc(C(=O)N3CCOCC3)cc2)c2ccccc12", "note": "(stereo not drawn) [Compound 72, 1-(4-(morpholine-4-carbonyl)benzyl)-N-((tetrahydrofuran-2-yl)methyl)-1H-indazole-3-carboxamide]", "activity at 10 µM": "< 200"},
      {"molecule": "O=C(Nc1ccc2c(c1)OCO2)c1nn(Cc2ccc3c(c2)OCO3)c2ccccc12", "note": "[Compound 123, N-(benzo[d][1,3]dioxol-5-yl)-1-(benzo[d][1,3]dioxol-5-ylmethyl)-1H-indazole-3-carboxamide]", "activity at 10 µM": "201 to 300"},
      {"molecule": "O=C(Nc1ccc2c(c1)OC(F)(F)O2)c1nn(Cc2ccc(C(=O)N3CCOCC3)cc2)c2ccccc12", "note": "[Compound 25, N-(2,2-difluorobenzo[d][1,3]dioxol-5-yl)-1-(4-(morpholine-4-carbonyl)benzyl)-1H-indazole-3-carboxamide]", "activity at 10 µM": "> 401"},
      {"molecule": "CC(C)(C)c1ccc(Cn2nc(C(=O)Nc3ccc4c(c3)OCO4)c3ccccc32)cc1", "note": "[Compound 42, N-(benzo[d][1,3]dioxol-5-yl)-1-(4-tert-butylbenzyl)-1H-indazole-3-carboxamide]", "activity at 10 µM": "> 401"},
      {"molecule": "CC(C)c1ccc(NC(=O)c2nn(CCOc3ccc(F)cc3)c3ccccc23)cc1", "note": "[Compound 60, 1-(2-(4-fluorophenoxy)ethyl)-N-(4-isopropylphenyl)-1H-indazole-3-carboxamide]", "activity at 10 µM": "< 200"},
      {"molecule": "COc1ccc(NC(=O)c2nn(Cc3ccc(C(C)(C)C)cc3)c3ccccc23)cc1", "note": "[Compound 65, 1-(4-tert-butylbenzyl)-N-(4-methoxyphenyl)-1H-indazole-3-carboxamide]", "activity at 10 µM": "201 to 300"},
      {"molecule": "O=C(Nc1ccc2c(c1)OCO2)c1nn(Cc2ccc(C(=O)N3CCOCC3)cc2)c2ccccc12", "note": "[Compound 63, N-(benzo[d][1,3]dioxol-5-yl)-1-(4-(morpholine-4-carbonyl)benzyl)-1H-indazole-3-carboxamide]", "activity at 10 µM": "> 401"},
      {"molecule": "CON(C)S(=O)(=O)c1ccc(Cn2nc(C(=O)Nc3ccccn3)c3ccccc32)cc1", "note": "[Compound 49, 1-(4-(N-methoxy-N-methylsulfamoyl)benzyl)-N-(pyridin-2-yl)-1H-indazole-3-carboxamide]", "activity at 10 µM": "< 200"},
      {"molecule": "O=C(Nc1ccc(N2CCCCC2)cc1)c1nn(Cc2ccc(-c3ccccc3)cc2)c2ccccc12", "note": "[Compound 69, 1-(biphenyl-4-ylmethyl)-N-(4-(piperidin-1-yl)phenyl)-1H-indazole-3-carboxamide]", "activity at 10 µM": "< 200"},
      {"molecule": "CS(=O)(=O)c1ccc(Cn2nc(C(=O)Nc3nccs3)c3ccccc32)cc1", "note": "[Compound 3, 1-(4-(methylsulfonyl)benzyl)-N-(thiazol-2-yl)-1H-indazole-3-carboxamide]", "activity at 10 µM": "< 200"},
      {"molecule": "Cc1ccc2c(c1)c(NC(=O)Nc1ccccc1C(C)C)nn2Cc1cc2c(cc1Cl)OCO2", "note": "[Compound 13, 1-(1-((6-chlorobenzo[d][1,3]dioxol-5-yl)methyl)-5-methyl-1H-indazol-3-yl)-3-(2-isopropylphenyl)urea]", "activity at 10 µM": "< 200"},
      {"molecule": "COc1ccc(NC(=O)Nc2nn(Cc3ccc(COc4ccc5c(c4)OCO5)cc3)c3ccc(C(F)(F)F)cc23)c(OC)c1", "note": "[Compound 31, 1-(1-(4-((benzo[d][1,3]dioxol-5-yloxy)methyl)benzyl)-5-(trifluoromethyl)-1H-indazol-3-yl)-3-(2,4-dimethoxyphenyl)urea]", "activity at 10 µM": "< 200"},
      {"molecule": "CC(C)(C)c1ccc(Cn2nc(C(=O)Nc3ccc(OC(F)(F)F)cc3)c3ccccc32)cc1", "note": "[Compound 70, 1-(4-tert-butylbenzyl)-N-(4-(trifluoromethoxy)phenyl)-1H-indazole-3-carboxamide]", "activity at 10 µM": "< 200"},
      {"molecule": "CC(C)c1ccc(NC(=O)c2nn(Cc3ccc(S(C)(=O)=O)cc3)c3ccccc23)cc1", "note": "[Compound 62, N-(4-isopropylphenyl)-1-(4-(methylsulfonyl)benzyl)-1H-indazole-3-carboxamide]", "activity at 10 µM": "301 to 400"},
      {"molecule": "COc1ccc(OC)c(NC(=O)Nc2nn(Cc3ccc(COc4ccc5c(c4)OCO5)cc3)c3ccc(C(F)(F)F)cc23)c1", "note": "[Compound 2, 1-(1-(4-((benzo[d][1,3]dioxol-5-yloxy)methyl)benzyl)-5-(trifluoromethyl)-1H-indazol-3-yl)-3-(2,5-dimethoxyphenyl)urea]", "activity at 10 µM": "< 200"}
    ]}
  ]
}
